Biological target: ATP-dependent translocase ABCB1 (Homo sapiens, UniProt P08183)
Assay: TP_TRANSPORTER: transepithelial transport (basal to apical) in MDR1-expressing LLC-PK1 cells
Assay type: functional, cell-based
Details: pig

Chain of ATP-dependent translocase ABCB1 (P08183 whole entry): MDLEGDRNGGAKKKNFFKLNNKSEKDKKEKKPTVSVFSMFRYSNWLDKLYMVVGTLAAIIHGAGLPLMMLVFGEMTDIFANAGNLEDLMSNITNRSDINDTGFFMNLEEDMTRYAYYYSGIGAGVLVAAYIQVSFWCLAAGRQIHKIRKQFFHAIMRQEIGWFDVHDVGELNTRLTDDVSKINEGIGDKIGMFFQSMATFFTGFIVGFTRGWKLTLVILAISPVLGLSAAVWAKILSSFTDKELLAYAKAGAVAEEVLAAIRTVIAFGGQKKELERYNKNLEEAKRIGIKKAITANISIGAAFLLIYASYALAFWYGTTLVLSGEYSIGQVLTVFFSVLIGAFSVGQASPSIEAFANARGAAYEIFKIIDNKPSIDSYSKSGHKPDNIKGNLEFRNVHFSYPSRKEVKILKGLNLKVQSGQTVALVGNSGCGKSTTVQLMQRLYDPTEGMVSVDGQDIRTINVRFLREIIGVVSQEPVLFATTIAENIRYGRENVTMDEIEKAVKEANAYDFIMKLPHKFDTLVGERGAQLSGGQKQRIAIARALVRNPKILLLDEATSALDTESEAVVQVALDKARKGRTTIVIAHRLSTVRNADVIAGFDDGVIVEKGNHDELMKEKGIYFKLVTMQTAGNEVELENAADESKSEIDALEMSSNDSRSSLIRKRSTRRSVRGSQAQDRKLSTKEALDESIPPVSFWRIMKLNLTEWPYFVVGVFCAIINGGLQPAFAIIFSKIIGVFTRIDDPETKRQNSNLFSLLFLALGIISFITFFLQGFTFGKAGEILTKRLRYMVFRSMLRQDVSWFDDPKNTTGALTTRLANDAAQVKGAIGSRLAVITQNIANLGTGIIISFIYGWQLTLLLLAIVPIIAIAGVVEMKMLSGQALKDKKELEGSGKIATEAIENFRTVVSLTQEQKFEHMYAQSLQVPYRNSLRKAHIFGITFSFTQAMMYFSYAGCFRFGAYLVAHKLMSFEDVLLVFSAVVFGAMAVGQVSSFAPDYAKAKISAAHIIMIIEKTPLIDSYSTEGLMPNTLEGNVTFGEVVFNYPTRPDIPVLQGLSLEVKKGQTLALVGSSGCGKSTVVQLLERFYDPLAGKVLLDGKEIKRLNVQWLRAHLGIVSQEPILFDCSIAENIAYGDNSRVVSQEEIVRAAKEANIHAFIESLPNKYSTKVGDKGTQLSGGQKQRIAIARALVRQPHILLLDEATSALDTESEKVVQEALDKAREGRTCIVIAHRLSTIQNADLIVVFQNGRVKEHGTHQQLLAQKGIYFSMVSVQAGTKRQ

Row | Compound | Activity
1 | CCOC(=O)C1=C(C)NC(C)=C(C(=O)OCCNC(=O)c2ccc(N=[N+]=[N-])cc2)C1c1ccccc1C(F)(F)F (configuration not stated) [AZIDOPINE] | substrate [+]
2 | COc1ccc([C@@H]2Sc3ccccc3N(CCN(C)C)C(=O)[C@@H]2OC(C)=O)cc1 [DILTIAZEM] | substrate [+]

From ChEMBL document CHEMBL2074162, “P-glycoprotein-mediated transcellular transport of MDR-reversing agents” (FEBS Lett, 1993)
